Data set [1] concerns transcriptional activity of hTERT. Nature of the data set: SEAP reporter assay of hTERT expression, PhTERT-SEAP (hTERT-BJ1). It is filed as cell-based, human. Conditions: Homo sapiens, hTERT-BJ1, read-out: Relative SEAP activity (%). In a few lines:
(§1)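 Cells seeded, grown 24 h at 37° C, refed, then exposed to varying drug amounts for another 24 h. Collected media heated 65° C for 10 min to kill heat-labile phosphatases, mixed with equal SEAP buffer (2 M diethanolamine, 1 mM MgCl2, 20 mM […]) plus 12 mM final p-nitrophenyl phosphate; rate of A405 increase measured.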

A further data set deals with rat glioma C6 cells. Briefly: Cytotoxicity assay (XTT colorimetric), C6 cells. It is filed as cell-based. Conditions: Rattus norvegicus, C6; 48 h of drug exposure.
The nature of data set [2]: MTT relative viability, PhTERT-SEAP (H1299) cells. Conditions: human.
The test system of data set [3] is iron-induced lipid peroxidation in rat brain homogenates. Nature of the data set: Iron-induced lipid peroxidation in rat brain homogenates. The note with it: 10 mM; for Inhibition of LP(10 mM): mean percent inhibition (Table 3); for LP (%) (10 mM): relative percentage of inhibition (Table 1).
Data set [4] relates to transcriptional activity of hTERT. Briefly: SEAP reporter assay of hTERT expression, PhTERT-SEAP (H1299). It is filed as cell-based, human. In a few lines: as §1
The subject of the next data set is human hepatoma G2 cells. Briefly: Cytotoxicity assay (XTT colorimetric), Hep G2. The format is cell-based. The note with it: Homo sapiens, HepG2; 48 h of drug exposure.
Data set [5] in a line: MTT relative viability, PhTERT-SEAP (hTERT-BJ1) cells. Conditions: human.
For data set [6], the system named is hepatitis B virus transfected hepatoma cell lines, HepG 2.2.15 cells. Nature of the data set: Cytotoxicity assay, 2.2.15 cells. It is filed as cell-based, human. Conditions: Homo sapiens, HepG2.2.15; 48 h of drug exposure.
The mark [7] stands for this setting: hTERT-BJ1 cells, stable PhTERT-SEAP reporter clone.

In the case of `O=C(Oc1cccc2c1C(=O)c1cccc(OC(=O)c3ccc(Cl)cc3)c1C2=O)c1ccc(Cl)cc1`, the activity at 1.9 µM in data set [1] stood at 136 ± 5.7%; in [4] (Homo sapiens, NCI-H1299, 1.9 μM, H1299, read-out: Relative SEAP activity (%)), 106 ± 4.5%. In addition, the activity at 19 µM in data set [1] was determined as 123 ± 6.2%; in data set [4] (Homo sapiens, NCI-H1299, 19 μM, H1299, read-out: Relative SEAP activity (%)), 106 ± 4.9%. For the same compound, the activity at 190 µM turned out to be 107 ± 6% in data set [1] (190 μM) and 97 ± 4.9% in [4] (Homo sapiens, NCI-H1299, 190 μM, H1299, read-out: Relative SEAP activity (%)). Moreover, the results for the IC50 with rat glioma C6 cells and in the data set with human hepatoma G2 cells were 38.6 ± 3.5 µM and 48.1 ± 4.5 µM, respectively. For the same compound, the viability at 48 h, 1.9 µM in data set [2] was 91 ± 10%; in [5] (setting [7]) it was 111 ± 6.5%. Besides, the viability at 48 h, 19 µM in data set [2] was determined as 57 ± 1.8%; in data set [5] (setting [7]) it was 89 ± 14.3%. In addition, the viability at 48 h, 190 µM in data set [2] was found to be 31 ± 1%; in data set [5] (setting [7]) it was 48 ± 9%. Besides, the “Inhibition of LP(10 mM)” value in data set [3] stood at 2 ± 0.2%.
Regarding `O=C1c2cccc(SCCO)c2C(=O)c2cccc(SCCO)c21` [IIb, 1,5-Bis(hydroxyethylthio)-anthraquinone], the activity at 2.8 µM in [1] (2.8 μM) was determined as 104 ± 15.7%; in data set [4] (Homo sapiens, NCI-H1299, 2.8 μM, H1299, read-out: Relative SEAP activity (%)) it was 97 ± 15.7%. Also, the activity at 28 µM in [1] (28 μM) worked out at 98 ± 10.9%; in [4] (Homo sapiens, NCI-H1299, 28 μM, H1299, read-out: Relative SEAP activity (%)), 76 ± 12.4%. Also, the activity at 280 µM was 71 ± 5% in data set [1] (280 μM) and 45 ± 2.7% in data set [4] (Homo sapiens, NCI-H1299, 280 μM, H1299, read-out: Relative SEAP activity (%)). Further, the IC50 in the data set on rat glioma C6 cells is 21.5 ± 0.8 µM; in the data set with human hepatoma G2 cells, 36.4 ± 1.5 µM. For the same compound, the viability at 48 h, 2.8 µM in [2] came to 54 ± 4%; in [5], 94 ± 9.3%. Also, the viability at 48 h, 28 µM stood at 29 ± 7% in data set [2] and 49 ± 2.9% in data set [5]. Besides, the viability at 48 h, 280 µM in data set [2] stood at 36 ± 7.2%; in data set [5], 23 ± 2.9%. In addition, the “LP (%) (10 mM)” value in data set [3] was 16 ± 2.2%.
Regarding `O=C1c2cccc(SCCC(O)O)c2C(=O)c2cccc(SCCC(O)O)c21` [IId, 1,5-Bis(dihydroxypropylthio)-anthraquinone], the melting point lay within 238 to 239 °C.
In turn, `CCCCNc1cccc2c1C(=O)c1cccc(NCCCC)c1C2=O` [IVg, 1,5-Bis(butylamino)anthraquinone] showed a melting point of 152 to 153 °C.
On the same count and under the same terms, then `O=C1c2cccc(NC3CCCC3)c2C(=O)c2cccc(NC3CCCC3)c21` [IVi, 1,5-Bis(cyclopentylamino)anthraquinone], with 198 to 201 °C; and `NCCCCNc1cccc2c1C(=O)c1cccc(NCCCCN)c1C2=O` [IVl, 1,5-Bis(aminobutylamino)-anthraquinone], with 208 to 210 °C; and `CCCCCCNc1cccc2c1C(=O)c1cccc(NCCCCCC)c1C2=O` [IVn, 1,5-Bis(hexylamino)-anthraquinone], with 142 to 144 °C.
As for `CC1CCCC(Nc2cccc3c2C(=O)c2cccc(NC4CCCC(C)C4C)c2C3=O)C1C` (stereo not shown) [IVp, 1,5-Bis(2,3-dimethylcyclohexylamino)-anthraquinone], the melting point lay in the range of 188 to 190 °C.
On to `O=C1c2c(O)ccc(O)c2C(=O)c2c(NCCNCCO)ccc(NCCNCCO)c21` [Mitoxantrone, reference compound], for which the activity at 1.9 µM in data set [1] is 30 ± 5.8%; in [4] (Homo sapiens, NCI-H1299, 1.9 μM, PhTERT-SEAP(hTERT-H1299), read-out: Relative SEAP activity (%)), 81 ± 3.8%. The activity at 19 µM came out at 13 ± 9.2% in data set [1] and 66 ± 4% in data set [4] (Homo sapiens, NCI-H1299, 19 μM, PhTERT-SEAP(hTERT-H1299), read-out: Relative SEAP activity (%)). The activity at 193 µM in data set [1] (193 μM) turned out to be 4 ± 14.2%; in [4] (Homo sapiens, NCI-H1299, 193 μM, PhTERT-SEAP(hTERT-H1299), read-out: Relative SEAP activity (%)), 47 ± 3.9%. In addition, the values for the IC50 (in data set [6]; with rat glioma C6 cells; in the data set on human hepatoma G2 cells) were 0.4 µM, 0.07 ± 0.01 µM and 2 ± 0.5 µM, respectively. In addition, the viability at 48 h, 1.9 µM in data set [2] is 100 ± 5.6%; in data set [5], 75 ± 2.9%. Also, the results for the viability at 48 h, 19 µM in data set [2] and in data set [5] were 57 ± 4.3% and 56 ± 3.1%, respectively. Besides, the viability at 48 h, 193 µM was 39 ± 3.2% in [2] and 10 ± 2% in [5]. For the same compound, in [3], the “Inhibition of LP(10 mM)” value is given as more than 100%. Besides, in data set [3], the “LP (%) (10 mM)” value stood at 54 ± 1.5%. Also, the SEAP/vibility is recorded as 0.82 in [4] (1.9 μM, PhTERT-SEAP(hTERT-H1299)); 1.16 in data set [4] (19 μM, PhTERT-SEAP(hTERT-H1299)); 1.21 in data set [4] (193 μM, PhTERT-SEAP(hTERT-H1299)).
In turn, `CCC(=O)Nc1cccc2c1C(=O)c1cccc(NC(=O)CC)c1C2=O` [VIIb, 1,5-bis-(methylacetamido)-9,10-anthracenedione] showed a melting point of 321 °C.
Consider `CC(Cl)C(=O)Nc1cccc2c1C(=O)c1cccc(NC(=O)C(C)Cl)c1C2=O` (stereo not shown) [VIId, 1,5-bis-(2-chloropropionamido)-9,10-anthracenedione], for which the melting point was 288 to 289 °C.

Source of the values: patent US20050009924A1 (priority 2003, published 2005).
